Results from PubChem BioAssay (NCI).
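Tested at 5 concentrations; 48 h exposure; 96-well plates; endpoints linearly interpolated, else capped at highest concentration. Here, GI50 denotes the concentration required for 50% inhibition of growth. Definition used: TGI = concentration required for complete inhibition of growth.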

How the values were obtained:
Assay in all cases: NCI anticancer screen, dose series, 48 h
[1] = test system: HOP-92 NSCLC
[2] = test system: CCRF-CEM leukemia
[3] = test system: SK-OV-3 ovarian
[4] = test system: M14 melanoma
[5] = test system: LOX IMVI melanoma
[6] = test system: COLO 205 colon
[7] = test system: HT29 colon
[8] = test system: SK-MEL-5 melanoma
[9] = test system: 786-0 renal
[10] = test system: IGROV1 ovarian
[11] = test system: MDA-MB-435
[12] = test system: SNB-75 CNS
[13] = test system: UACC-62 melanoma
[14] = test system: RPMI-8226 leukemia
[15] = test system: NCI-H460 lung
[16] = test system: HCC-2998 colon
[17] = test system: T-47D breast
[18] = test system: MCF7 breast
[19] = test system: SN12C renal
[20] = test system: NCI-H226 lung
[21] = test system: OVCAR-4 ovarian
[22] = test system: SW-620 colon
[23] = test system: HCT-116 colon
[24] = test system: NCI/ADR-RES ovarian
[25] = test system: HL-60(TB) leukemia
[26] = test system: ACHN renal
[27] = test system: A498 renal
[28] = test system: SF-268 CNS
[29] = test system: OVCAR-5 ovarian
[30] = test system: NCI-H23 lung
[31] = test system: HOP-62 NSCLC
[32] = test system: BT-549 breast
[33] = test system: MDA-MB-231 breast
[34] = test system: TK-10 renal
[35] = test system: SK-MEL-28 melanoma
[36] = test system: SNB-19 CNS
[37] = test system: U251 CNS
[38] = test system: MALME-3M melanoma
[39] = test system: KM12 colon
[40] = test system: K-562 leukemia
[41] = test system: HS 578T breast
[42] = test system: A549 NSCLC
[43] = test system: SF-295 CNS
[44] = test system: CAKI-1 renal
[45] = test system: OVCAR-3 ovarian
[46] = test system: PC-3 prostate
[47] = test system: EKVX NSCLC
[48] = test system: HCT-15 colon
[49] = test system: SF-539 CNS
[50] = test system: DU-145 prostate
[51] = test system: MOLT-4 leukemia
[52] = test system: SK-MEL-2 melanoma
[53] = test system: RXF 393 renal
[54] = test system: UO-31 renal
[55] = test system: UACC-257 melanoma

**Q.** What does the source list for Cc1ccc(NCCN2CCCCC2)c2c(=O)c3ccccc3sc12?
**A.** GI50 [1]: 1.88 µM; TGI [1]: 7.56 µM; GI50 [2]: 2.38 µM; TGI [2]: 6.92 µM; GI50 [3]: 2.04 µM; TGI [3]: 6.03 µM; GI50 [4]: 1.61 µM; TGI [4]: 2.97 µM; GI50 [5]: 1.78 µM; TGI [5]: 3.68 µM; GI50 [6]: 1.45 µM; TGI [6]: 2.85 µM; GI50 [7]: 1.97 µM; TGI [7]: 4.72 µM; GI50 [8]: 1.62 µM; TGI [8]: 3 µM; GI50 [9]: 1.63 µM; TGI [9]: 3.61 µM; GI50 [10]: 1.48 µM; TGI [10]: 4.3 µM; GI50 [11]: 1.78 µM; TGI [11]: 3.73 µM; GI50 [12]: 2.61 µM; TGI [12]: 8.09 µM; GI50 [13]: 1.92 µM; TGI [13]: 3.77 µM; GI50 [14]: 1.49 µM; TGI [14]: 3.42 µM; GI50 [15]: 1.89 µM; TGI [15]: 3.88 µM; GI50 [16]: 2.16 µM; TGI [16]: 3.67 µM; GI50 [17]: 2.02 µM; TGI [17]: 6 µM; GI50 [18]: 1.56 µM; TGI [18]: 3.55 µM; GI50 [19]: 4.35 µM; TGI [19]: 17.6 µM; GI50 [20]: 2.24 µM; TGI [20]: 4.96 µM; GI50 [21]: 5.57 µM; TGI [21]: 18.1 µM; GI50 [22]: 1.96 µM; TGI [22]: 4.01 µM; GI50 [23]: 1.68 µM; TGI [23]: 3.17 µM; GI50 [24]: 2.45 µM; TGI [24]: 6.78 µM; GI50 [25]: 1.66 µM; TGI [25]: 3.6 µM; GI50 [26]: 2.68 µM; TGI [26]: 7.47 µM; GI50 [27]: 1.91 µM; TGI [27]: 3.64 µM; GI50 [28]: 5.33 µM; TGI [28]: 18.7 µM; GI50 [29]: 1.97 µM; TGI [29]: 3.64 µM; GI50 [30]: 2.25 µM; TGI [30]: 5.77 µM; GI50 [31]: 1.55 µM; TGI [31]: 3.07 µM; GI50 [32]: 2.43 µM; TGI [32]: 9.59 µM; GI50 [33]: 2.12 µM; TGI [33]: 4.77 µM; GI50 [34]: 2 µM; TGI [34]: 5.82 µM; GI50 [35]: 2.43 µM; TGI [35]: 4.16 µM; GI50 [36]: 2.8 µM; TGI [36]: 13.1 µM; GI50 [37]: 2.61 µM; TGI [37]: 7.9 µM; GI50 [38]: 1.19 µM; TGI [38]: 2.55 µM; GI50 [39]: 3.81 µM; TGI [39]: 14.4 µM; GI50 [40]: 1.64 µM; TGI [40]: 3.52 µM; GI50 [41]: 2.03 µM; TGI [41]: 5.17 µM; GI50 [42]: 1.42 µM; TGI [42]: 2.97 µM; GI50 [43]: 1.63 µM; TGI [43]: 3.73 µM; GI50 [44]: 0.278 µM; TGI [44]: 2.43 µM; GI50 [45]: 4.75 µM; TGI [45]: 17.6 µM; GI50 [46]: 2.14 µM; TGI [46]: 7.49 µM; GI50 [47]: 2.77 µM; TGI [47]: 13.1 µM; GI50 [48]: 3.17 µM; TGI [48]: 10.8 µM; GI50 [49]: 1.97 µM; TGI [49]: 5.98 µM; GI50 [50]: 3.76 µM; TGI [50]: 14.4 µM; GI50 [51]: 1.99 µM; TGI [51]: 4.91 µM

**Q.** Which results are given for CCN(CC)CCNC(=O)c1cn2ncnc(Oc3ccc(NC(=O)Nc4ccc(Cl)c(C(F)(F)F)c4)cc3)c2c1C?
**A.** GI50 [1]: 1.19 µM; TGI [1]: 2.69 µM; GI50 [3]: 1.85 µM; TGI [3]: 3.46 µM; GI50 [52]: 1.97 µM; TGI [52]: 4.15 µM; GI50 [5]: 1.36 µM; TGI [5]: 2.82 µM; GI50 [6]: 1.78 µM; TGI [6]: 3.56 µM; GI50 [8]: 1.76 µM; TGI [8]: 3.22 µM; GI50 [53]: 1.49 µM; TGI [53]: 3.02 µM; GI50 [10]: 1.69 µM; TGI [10]: 3.24 µM; GI50 [11]: 1.63 µM; TGI [11]: 3 µM; GI50 [12]: 0.0645 µM; TGI [12]: 1.52 µM; GI50 [13]: 1.81 µM; TGI [13]: 3.43 µM; GI50 [15]: 1.72 µM; TGI [15]: 3.32 µM; GI50 [54]: 1.72 µM; TGI [54]: 3.15 µM; GI50 [16]: 2.24 µM; TGI [16]: 3.92 µM; GI50 [17]: 1.8 µM; TGI [17]: 4.42 µM; GI50 [55]: 1.63 µM; TGI [55]: 3.42 µM; GI50 [18]: 1.22 µM; TGI [18]: 2.77 µM; GI50 [19]: 1.6 µM; TGI [19]: 3.14 µM; GI50 [20]: 1.76 µM; TGI [20]: 3.89 µM; GI50 [21]: 1.79 µM; TGI [21]: 3.42 µM; GI50 [22]: 2.23 µM; TGI [22]: 3.96 µM; GI50 [24]: 1.98 µM; TGI [24]: 3.82 µM; GI50 [26]: 1.73 µM; TGI [26]: 3.1 µM; GI50 [27]: 1.39 µM; TGI [27]: 2.74 µM; GI50 [28]: 1.59 µM; TGI [28]: 3.14 µM; GI50 [29]: 1.99 µM; TGI [29]: 3.48 µM; GI50 [30]: 1.8 µM; TGI [30]: 3.49 µM; GI50 [31]: 1.76 µM; TGI [31]: 3.56 µM; GI50 [32]: 1.61 µM; TGI [32]: 3.09 µM; GI50 [33]: 1.87 µM; TGI [33]: 3.52 µM; GI50 [34]: 2.11 µM; TGI [34]: 3.92 µM; GI50 [35]: 1.48 µM; TGI [35]: 2.8 µM; GI50 [36]: 1.86 µM; TGI [36]: 3.27 µM; GI50 [38]: 1.29 µM; TGI [38]: 2.84 µM; GI50 [39]: 1.69 µM; TGI [39]: 3.25 µM; GI50 [40]: 0.383 µM; TGI [40]: 1.65 µM; GI50 [41]: 1.49 µM; TGI [41]: 3.92 µM; GI50 [43]: 1.8 µM; TGI [43]: 3.33 µM; GI50 [44]: 1.67 µM; TGI [44]: 3.07 µM; GI50 [45]: 1.93 µM; TGI [45]: 3.51 µM; GI50 [46]: 1.31 µM; TGI [46]: 2.8 µM; GI50 [47]: 1.69 µM; TGI [47]: 3.12 µM; GI50 [48]: 1.62 µM; TGI [48]: 3.1 µM; GI50 [49]: 1.1 µM; TGI [49]: 2.32 µM; GI50 [50]: 1.69 µM; TGI [50]: 3.1 µM; GI50 [51]: 0.738 µM; TGI [51]: 2.4 µM
